Assay [1] deals with Streptococcus mutans R9. As to the kind of experiment: Synergy of flavour material with xylitol in reducing acid production (glucose/xylitol broth pH test). It counts as cell-based. Particulars: anaerobic incubation 18-24 hours, pH difference between broths. The procedure: Xylitol is a sugar substitute that has been used in many products as a non-cariogenic sweetener. The potential synergy between xylitol and a flavour material useful in the composition of the invention was investigated using a glucose/xylitol broth by the following method. Flavour materials were tested at 250 ppm unless otherwise stated.
(§1) 250 ml of PM broth (of formulation as described in Example 1(a) above) was charged to a Duran bottle bunged with a breathable stopper and inoculated with a loopful of Streptococcus mutans R9 (as above). The bacterial culture was then incubated anaerobically for 2-3 days at 37° C., followed by centrifugation at 3600 rpm for 10 minutes. The supernatant was decanted to waste. The pellets remaining were resuspended in 12 ml of 0.1% peptone and the optical density at 540 nm (OD540) measured and adjusted (if required) by diluting with fresh PM broth to between 0.2 and 0.3 to give a stock inoculum culture.
(§2) Broth was prepared by adding 4% (w/v) glucose to 0.3% (w/v) TSB broth (GTSB). The broth was sterilised by aseptically passing the solution through a 0.22 μm filter into a sterile bottle.
Control and flavour material incubations were prepared as described in Example 1(b) above. Xylitol synergy was investigated by adding 2.5 ml of stock inoculum culture to 2.5 ml of GTSB supplemented with 4% (w/v) xylitol. […]
(§3) After anaerobic incubation of the resulting mixtures for 18-24 hours, the pH of the suspensions was measured using a 476530M combination pH electrode (Mettler Toledo, 64 Boston Road, Beaumont Leys, Leicester, LE4 1AW), calibrated using pH 4 and pH 7 buffers. Results were recorded as the difference in pH change between broths.
If the pH of the incubated broth containing flavour material and xylitol was higher than that recorded for incubated broths containing either flavour material or xylitol, then this was considered to indicate that there was a synergy between the flavour material and xylitol in reducing the acid production of Streptococcus mutans. […]

Assay [2] has as its system Streptococcus mutans R9. As to the kind of experiment: Synergy of flavour material with fluoride in reducing acid production (bottle pH test). In kind it is cell-based. Particulars: flavour material at 250 ppm plus fluoride (NaF); 2% glucose; anaerobic incubation 18-24 hours; pH difference between broths. The method, then: as §1, §2
Control incubations were prepared by adding 2.5 ml of the stock inoculum culture (adjusted to an OD540 of 0.2-0.3) to 2.5 ml of GTSB containing 4% (w/v) glucose in 0.3% (w/v) TSB.
A test flavour material/flavour was diluted in the GTSB to give a stock solution of flavour material/flavour with a final concentration of 25,000 ppm (250 mg flavour material/flavour in 10 ml of GTSB).
Flavour material/flavour incubations were prepared by adding 2.5 ml of the stock inoculum culture to 2.45 ml of GTSB, and 50 μl of flavour material/flavour stock solution. Thus, flavour materials/flavours were tested at a final concentration of 250 ppm, for their efficacy in inhibiting acid production from 2% glucose.
The mixtures were then incubated anaerobically.
After anaerobic incubation of the resulting mixtures for 18-24 hours, the pH of the suspensions was measured using a 476530M combination pH electrode (Mettler Toledo, 64 Boston Road, Beaumont Leys, Leicester, LE4 1AW), calibrated using pH 4 and pH 7 buffers. Results were recorded as the difference in pH change between broths containing flavour material/flavour and an untreated control.
Flavour materials useful in a flavour composition of the invention were tested at 250 ppm for their potential synergy with fluoride as described below.
Control and flavour material incubations were prepared as described in Example 1(b) above.
A fluoride stock solution (2,500 ppm F^−) was prepared by dissolving […] NaF in 10 ml of GTSB. For fluoride controls, 2.5 ml of stock inoculum culture was added to 2.48 ml of GTSB, and 20 μl of fluoride stock solution.
For flavour material and fluoride incubations, 2.5 ml of stock inoculum culture was added to 2.43 ml of GTSB, 50 μl of flavour material stock solution and 20 μl of fluoride stock solution.
The mixtures were incubated anaerobically.
as §3
If the pH of the incubated broth containing flavour material and fluoride was higher than that measured for incubated broths containing either flavour material or fluoride, then this was considered to indicate that there had been a synergistic effect between the flavour material and fluoride in reducing the acid production of Streptococcus mutans.

Here are results for nine molecules from US20060153958A1, “Relating to flavour compositions” (priority 2003, published 2006).

Consider `CC(=O)/C=C/C1C(C)=CCCC1(C)C` (stereo not drawn) [Ionone Alpha, ionone alpha], for which the “Synergy with Xylitol” value in assay [1] (flavour material at 125 ppm) is reported as “++++ (Inhibition of acid production by an additional 0.75 pH units or more (i.e. >0.75 pH units in addition to the effect of fluoride or flavour material alone))”. Regarding `CCCCCCCCCC=O` [Aldehyde C10 (Decanal), decanal], the “Synergy with Fluoride” value in assay [2] was “++ (Inhibition of acid production by an additional 0.25-0.49 pH units)”. `O=C/C=C/c1ccccc1` [Cinnamic Aldehyde Extra, cinnamic aldehyde]: the “Synergy with Fluoride” value in assay [2] is reported as “++ (Inhibition of acid production by an additional 0.25-0.49 pH units)”. In the case of Damascone, in assay [1] (flavour material at 250 ppm), the “Synergy with Xylitol” value was “++ (Inhibition of acid production by an additional 0.25-0.49 pH units)”. As to `Cc1ccc(C(C)C)c(O)c1` [Thymol, thymol], the “Synergy with Fluoride” value in assay [2] was “+ (Inhibition of acid production by an additional 0.01-0.24 pH units)”.

In the case of `CCCCCCCCCO` [Alcohol C9, nonanol], the “Synergy with Xylitol” value in assay [1] (flavour material at 62.5 ppm) is reported as “+++ (Inhibition of acid production by an additional 0.50-0.74 pH units)”. For the molecule `CCCCCCCCCCO` [Alcohol C10 (Decanol), decanol], the “Synergy with Fluoride” value in assay [2] is given as “++++ (Inhibition of acid production by an additional 0.75 pH units or more (i.e. >0.75 pH units in addition to the effect of fluoride or flavour material alone))”. Turning to `CC(C)=CCCC(C)=CC=O` [Citral Natural, citral], in assay [2], the “Synergy with Fluoride” value is given as “+ (Inhibition of acid production by an additional 0.01-0.24 pH units)”. For the molecule `CC=Cc1ccc(OC)cc1` [Anethole Synthetic, anethole], the “Synergy with Fluoride” value in assay [2] is listed as “++++ (Inhibition of acid production by an additional 0.75 pH units or more (i.e. >0.75 pH units in addition to the effect of fluoride or flavour material alone))”.
